Values of other authors, collected in patent US8198478B2 (Ajinomoto Co., Inc., priority 2007, dated 2012).

Details: literature value (Kagaku Binran, 1993)

hydrogen ion dissociation constant pk1: 2.19
hydrogen ion dissociation constant pk2: 4.25
hydrogen ion dissociation constant pk3: 9.67
Compound: N[C@@H](CCC(=O)O)C(=O)O [glutamic acid]
